This is an account of results in ChEMBL document CHEMBL3217591, “Synthesis and biological evaluation of imidazolylmethylacridones as cytochrome P-450 enzymes inhibitors” (Medchemcomm, 2012).

The target of experiment [1] is T1, Aromatase (Homo sapiens, UniProt P11511).
T1 sequence (P11511 whole entry): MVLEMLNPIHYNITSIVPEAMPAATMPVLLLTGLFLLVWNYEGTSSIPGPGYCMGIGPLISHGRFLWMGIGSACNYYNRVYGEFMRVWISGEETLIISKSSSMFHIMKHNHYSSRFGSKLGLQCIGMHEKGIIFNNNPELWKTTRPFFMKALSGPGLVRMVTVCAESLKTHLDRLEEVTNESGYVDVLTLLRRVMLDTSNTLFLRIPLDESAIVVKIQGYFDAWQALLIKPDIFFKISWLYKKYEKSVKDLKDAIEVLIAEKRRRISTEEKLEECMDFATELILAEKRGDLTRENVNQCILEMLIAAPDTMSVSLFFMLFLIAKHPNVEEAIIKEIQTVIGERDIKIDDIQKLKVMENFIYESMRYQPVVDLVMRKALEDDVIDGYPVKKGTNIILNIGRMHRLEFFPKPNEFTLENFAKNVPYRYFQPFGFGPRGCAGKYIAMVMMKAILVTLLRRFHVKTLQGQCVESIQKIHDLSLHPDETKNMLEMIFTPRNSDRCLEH
The experiment can be described thus: Inhibition of CYP19 isolated from microsomal fraction of human term placental tissue using [1beta-3H] androstenedione as substrate preincubated for 5 mins followed by enzyme addition measured after 20 mins by beta scintillation counting analysis.

Experiment [2] concerns the target T2, Cytochrome P450 11B1, mitochondrial (Homo sapiens, UniProt P15538).
T2 sequence (P15538 whole entry): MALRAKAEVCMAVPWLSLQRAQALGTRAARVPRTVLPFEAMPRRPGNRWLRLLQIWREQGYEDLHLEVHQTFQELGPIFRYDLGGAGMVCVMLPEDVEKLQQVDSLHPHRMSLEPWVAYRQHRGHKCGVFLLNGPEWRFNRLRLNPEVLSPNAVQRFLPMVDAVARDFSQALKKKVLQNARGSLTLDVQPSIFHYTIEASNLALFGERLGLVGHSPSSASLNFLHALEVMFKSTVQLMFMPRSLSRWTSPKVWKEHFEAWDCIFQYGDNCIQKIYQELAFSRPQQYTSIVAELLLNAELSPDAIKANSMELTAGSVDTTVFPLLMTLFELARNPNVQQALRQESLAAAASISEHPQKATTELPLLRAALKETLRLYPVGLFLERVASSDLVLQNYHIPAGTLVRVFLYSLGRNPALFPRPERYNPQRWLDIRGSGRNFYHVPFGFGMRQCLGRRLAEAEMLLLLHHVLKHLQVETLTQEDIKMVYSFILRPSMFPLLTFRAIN
Briefly: Inhibition of CYP11B1 (unknown origin) expressed in Chinese hamster V79MZ cells using [1,2-3H]-11-deoxycorticosterone as substrate preincubated for 60 mins followed by substrate addition measured after 25 mins by HPLC analysis. The experiment is classed as cell-based.

In experiment [3] the target is T1, Aromatase. Briefly: Inhibition of CYP19 isolated from microsomal fraction of human term placental tissue using [1beta-3H] androstenedione as substrate at 2 uM preincubated for 5 mins followed by enzyme addition measured after 20 mins by beta scintillation counting analysis relative to control.
Experiment [4] addresses T2, Cytochrome P450 11B1, mitochondrial. Briefly: Inhibition of CYP11B1 (unknown origin) expressed in Chinese hamster V79MZ cells using [1,2-3H]-11-deoxycorticosterone as substrate at 500 nM preincubated for 60 mins followed by substrate addition measured after 25 mins by HPLC analysis relative to control. It counts as cell-based.
Experiment [5] has as its target T3, Steroid 17-alpha-hydroxylase/17,20 lyase (Homo sapiens, UniProt P05093).
T3 sequence (P05093 whole entry): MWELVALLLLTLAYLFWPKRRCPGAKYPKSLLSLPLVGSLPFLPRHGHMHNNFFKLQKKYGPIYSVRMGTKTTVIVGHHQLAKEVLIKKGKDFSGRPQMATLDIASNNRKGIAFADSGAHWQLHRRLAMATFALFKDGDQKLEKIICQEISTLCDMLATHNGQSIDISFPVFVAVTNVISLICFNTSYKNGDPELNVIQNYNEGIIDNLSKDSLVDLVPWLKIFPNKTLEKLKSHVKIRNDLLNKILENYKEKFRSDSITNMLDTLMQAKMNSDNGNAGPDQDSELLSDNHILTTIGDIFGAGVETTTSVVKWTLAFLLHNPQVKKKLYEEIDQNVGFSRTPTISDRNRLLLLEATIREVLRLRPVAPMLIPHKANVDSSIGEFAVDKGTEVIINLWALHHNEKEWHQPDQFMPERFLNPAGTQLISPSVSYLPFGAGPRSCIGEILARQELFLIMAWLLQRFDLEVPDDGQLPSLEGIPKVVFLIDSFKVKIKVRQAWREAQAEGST
The experiment can be described thus: Inhibition of human CYP17 expressed in Escherichia coli using progesterone as substrate at 2 uM preincubated for 5 mins followed by enzyme addition measured after 30 mins by HPLC analysis relative to control. The following applies: 0.5 h.

Experiment [6] has as its target T4, Cytochrome P450 11B2, mitochondrial (Homo sapiens, UniProt P19099).
T4 sequence (P19099 whole entry): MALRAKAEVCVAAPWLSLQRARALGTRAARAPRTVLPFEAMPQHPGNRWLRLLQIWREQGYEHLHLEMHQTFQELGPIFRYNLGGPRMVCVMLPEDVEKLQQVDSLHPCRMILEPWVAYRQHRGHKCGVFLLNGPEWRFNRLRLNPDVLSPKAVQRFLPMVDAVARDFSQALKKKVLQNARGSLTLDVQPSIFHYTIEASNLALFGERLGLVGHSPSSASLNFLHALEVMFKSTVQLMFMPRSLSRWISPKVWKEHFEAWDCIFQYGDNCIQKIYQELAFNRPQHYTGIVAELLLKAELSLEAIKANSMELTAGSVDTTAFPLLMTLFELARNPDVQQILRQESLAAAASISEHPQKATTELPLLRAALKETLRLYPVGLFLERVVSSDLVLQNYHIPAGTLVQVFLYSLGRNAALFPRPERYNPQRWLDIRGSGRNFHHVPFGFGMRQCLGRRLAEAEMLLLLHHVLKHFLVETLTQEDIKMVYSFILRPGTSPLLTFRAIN
Briefly: Inhibition of CYP11B2 (unknown origin) expressed in Chinese hamster V79MZ cells using [1,2-3H]-11-deoxycorticosterone as substrate at 500 nM preincubated for 60 mins followed by substrate addition measured after 50 mins by HPLC analysis relative to control. The experiment is classed as cell-based.

By IC50 is commonly meant the concentration at which inhibition is half-maximal. Higher therefore signals weaker potency in that assay. Broadly, the inhibition is the percentage by which the read-out fell short of the control. In the case of `O=c1c2ccccc2[nH]c2c(Cn3ccnc3)cccc12`, the 50% inhibitory concentration (IC50) in experiment [1] came out at 14.4 nM; in experiment [2] it was 21.2 nM. Besides, the figures for the inhibition at 2 µM in experiment [3] and in experiment [5] were 95.5% and 1.4%, respectively. For the same compound, the inhibition at 0.5 µM was 97.5% in experiment [4] and 40.8% in experiment [6].
For `O=c1c2ccccc2[nH]c2ccc(Cn3ccnc3)cc12`, the inhibition at 2 µM in experiment [3] and in experiment [5] was 0% each time. The figures for the inhibition at 0.5 µM in experiment [4] and in experiment [6] were 40.7% and 3.4%, respectively.
As for `N#Cc1ccc(C(c2ccc(C#N)cc2)n2cncn2)cc1` [LETROZOLE], the figures for the inhibition at 2 µM in experiment [3] and in experiment [5] were 99% and 6.8%, respectively. The inhibition at 0.5 µM came out at 16.4% in experiment [4] and 25.6% in experiment [6].
In turn, `CC(C)(C(=O)c1cccnc1)c1cccnc1` [METYRAPONE] had an inhibition at 2 µM in experiment [3] of 0%. Besides, the inhibition at 0.5 µM in experiment [4] is 98%; in experiment [6], 95%.
